From article PMC4965013, “Open Source Drug Discovery with the Malaria Box Compound Collection for Neglected Diseases and Beyond” (PLoS Pathogens, 2016)
pEC50: −log10 of the molar value. Like-named read-outs stand apart in the source and are kept apart here.

Tests used:
Haemonchus contortus = Haemonchus contortus Scynexis; assay type: cell-based; conditions: 10µM
P. falciparum HB3 = test: Stage-specificity / mitochondrial integrity image assay Ayong; assay type: cell-based; conditions: 10µM
[1] = test system: HIV-1 JR-FL or HIV-1 NL4-3 pseudoviruses; test: HIV-1 pseudovirus infection luciferase; assay type: cell-based
Description: Columns FK-GB, Moore group (data presented first in this paper). HIV and HIV-producing cell lines, toxicity and viral suppression. […] MMV compounds were incubated with HIV-1 JR-FL or HIV-1 NL4-3 pseudoviruses and U87-CD4-CCR5 or U87-CD4-CXCR4 cells (obtained through the NIH AIDS Reagent Program, Division of AIDS, NIAID, NIH: U87 CD4+CCR5+ Cells from Dr. HongKui Deng and Dr. Dan R. Littman) respectively for 3 days. Cells were assayed for infection by luciferase production (Bright-Glo Luciferase Substrate, Promega) and cell viability by MTT assay. […] MMV compounds were next incubated with HIV-1 JR-FL or HIV-1 NL4-3 viruses and U87-CD4-CCR5 or U87-CD4-CXCR4 cells respectively for 7 days. Cell supernatants were assayed for viral production by p24 ELISA [153] and cell viability by MTT assay. […] DMSO (5%) was completely toxic to all cells (based on visual inspection) and served as the positive control for MTT assays.

T. equi (USDA strain) = test: T. equi fluorescence-based growth assay; assay type: cell-based; conditions: Theileria equi
[2] = test system: Saccharomyces cerevisiae ABC16-Monster; test: S. cerevisiae ABC16-Monster growth inhibition; assay type: cell-based; conditions: ABC16MONSTER, read-out: S. cerevisiae strain ABC16-Monster in YPD % inhibition
Description: Column EA: Suzuki group (data presented first in this paper). Screening of MMV compounds for Saccharomyces cerevisiae ABC16-Monster growth inhibition. Methods: Compounds were added at 100 micromolar to YPD medium (1% yeast extract, 2% peptone, and 2% glucose). Only the solvent dimethyl sulfoxide (DMSO) without any MMV compound was added at 1% to the negative control. The initial density of ABC16-Monster cells corresponded to optical density at 600 nanometers (OD600) of 0.01. Cells were cultured without agitation in a 96-well plate at 30 degrees Celsius for 18 hours and then resuspended for measurement of OD600. For each compound, two cultures were conducted and examined. The average OD600 value was used. To calculate percent inhibition, OD600 for cells cultured with a compound was divided by OD600 for the negative control. The ABC16-Monster yeast strain was previously described.

[3] = test system: P. falciparum NF54 late-stage gametocytes; conditions: 5 µM; ref [55]; cited from earlier work
[4] = test system: MRC5SV2 human fibroblasts; conditions: read-out: MRC-5-Human-Fibroblasts EC50 (32000 >32µM); ref [84]; cited from earlier work
[5] = test system: Saccharomyces cerevisiae strain JHY222; test: S. cerevisiae JHY222 growth in three media; assay type: cell-based; conditions: 100µM
Description: Columns EB-ED: St. Onge group (data presented first in this paper). Growth inhibition of S. cerevisiae: The effects of Malaria Box compounds on the growth of yeast (Saccharomyces cerevisiae) were quantified as described previously. We employed the prototrophic yeast strain JHY222, a derivative of BY4743 in which auxotrophic markers have been repaired. Growth was measured in three different growth media: rich medium using dextrose as a carbon source, minimal medium using dextrose as a carbon source, or minimal medium using ethanol and glycerol as carbon sources. Compounds affecting growth in a media-specific manner may represent inhibitors of key metabolic pathways. For example, the antifolate drug methotrexate was previously shown to inhibit yeast growth far more potently in minimal medium compared to rich medium.

B. caballi (USDA) = test: B. caballi fluorescence-based growth assay; assay type: cell-based; conditions: Babesia caballi
[6] = test system: P. falciparum NF54 GFP-Pfs16 gametocytes stage I-III; conditions: ref [64], cited from earlier work
[7] = test system: P. falciparum Stage V male and female gametocytes; parameters: method as in ref [74] (a number printed in a supplementary file, which may have a reference list of its own: not looked up in the article's list); conditions: 1µM; ref [74]; cited from earlier work
P. falciparum Dd2 = test: Malaria Sybr Green I Fluorescence assay Dd2 Horrocks; assay type: cell-based; conditions: Plasmodium falciparum, DD2, 48 h; read-out: P. falciparum Dd2 asexual blood stage EC50 Horrocks
In short: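 Dd2 asexual parasites started at 2% trophozoite-stage parasitaemia and 2% hematocrit; growth read by SYBR Green I fluorescence after 48 h. IC50 values taken from log dose-response curves.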

[8] = test system: P. falciparum in vitro translation; parameters: method as in ref [19] (a number printed in a supplementary file, which may have a reference list of its own: not looked up in the article's list); conditions: 1 µM; ref [19]; cited from earlier work
[9] = test system: P. falciparum NF54Pfs16 gametocytes stage IV-V; conditions: 5µM; ref [62]; cited from earlier work
[10] = Human immunodeficiency virus 1, NL43, read-out: HIV JRFL % inhibition rep1 in U87 Luc
[11] = Human immunodeficiency virus 1, NL43, read-out: HIV JRFL % inhibition rep2 in U87 Luc
[12] = Human immunodeficiency virus 1, NL43, read-out: HIV NL4-3 % inhibition rep1 in U87 Luc

Row | SMILES | Haemonchus contortus 96hr % dead (Haemonchus contortus) | P. falciparum HB3 late ring (LR) stage activity (P. falciparum HB3) | inhibition at 5 µM [1, 10] | inhibition at 5 µM [1, 11] | inhibition at 5 µM [1, 12] | pEC50 (T. equi (USDA strain)) | inhibition at 100 µM [2] | gametocyte NF54 late stage (IV-V) % inhibition Cassera [3] | pEC50 [4] | S. cerevisiae jhy222 in YNBD medium growth compared with DMSO control [5] | S. cerevisiae jhy222 in YNBEG medium growth compared with DMSO control [5] | S. cerevisiae jhy222 in YPD medium growth compared with DMSO control [5] | pEC50 (B. caballi (USDA)) | gametocyte early stage (I-III) GFP-MTR % inhibition ([6]; 0.5µM) | gametocyte early stage (I-III) GFP-MTR % inhibition ([6]; 5µM) | Male gametocyte Stage V % inhibition of gamete formation [7] | female gametocyte Stage V % inhibition of gamete formation [7] | pEC50 (P. falciparum Dd2) | Translation Inhibitors (nl = 1.0, in vitro translation with P. falciparum lysate) [8] | gametocyte late stage (IV-V) luciferase % inhibition [9] | further results
1 | COc1ccc(C(=O)Nc2ccc3nc(N4CCCCC4)cc(C)c3c2)cc1OC [MMV019758] | 75% | ✖ | 4.56% | -50% | 7% | 5.16 | -8% | 56% | 4.79 | 0.0051 | 0.20 | 0.0044 | 6.29 | -8% | 8% | 10% | -48% | 6.21 | 0.98 | – | –
2 | COc1cc2cc(C(=O)Nc3ccccc3)c(N)nc2cc1OC [MMV006767] | 57% | T,S | 93% | 64% | 96% | 5.52 | 24% | 7% | < 4.49 | -0.11 | -0.49 | -0.0536 | 5.21 | 17% | 99% | 22% | -10% | 6.05 | 0.75 | 2% | P. falciparum HB3 trophozoite (T) stage activity (P. falciparum HB3): ✖
3 | CCN(CC)c1cc(C)c2cc(NC(=O)c3cccc(OC)c3)ccc2n1 [MMV000498] | 100% | ✖ | -9% | 52% | 15% | 6.34 | -6% | 47% | 4.81 | -0.05 | 0.14 | -0.0562 | 5.03 | 15% | 16% | -1.33% | -22% | 5.56 | 0.87 | -3.24% | P. falciparum HB3 early ring (ER) stage activity (P. falciparum HB3): ✖; P. falciparum HB3 trophozoite (T) stage activity (P. falciparum HB3): ✖
4 | CCOC(=O)c1cnc2ccc(OC)cc2c1NCc1ccccc1 [MMV665813] | 1% | – | -33% | -10% | -135% | 4.85 | -1.7% | 36% | < 4.49 | -0.13 | -0.06 | 0.0021 | 5.23 | 26% | 17% | -13% | -41% | 5.31 | 1.47 | 5.69% | –
5 | CCN1CCN(c2cc(C)c3cc(NC(=O)c4ccc(OC)c(OC)c4)ccc3n2)CC1 [MMV019074] | 31% | ✖ | 11% | -62% | 13% | 6.48 | 3.48% | 27% | 5.26 | 0.0025 | -0.0049 | -0.0537 | 5.23 | 11% | 14% | -3.72% | -9% | 5.73 | 0.94 | -9% | P. falciparum HB3 early ring (ER) stage activity (P. falciparum HB3): ✖
